From PMC3808535, “Pannexin1 Channel Proteins in the Zebrafish Retina Have Shared and Unique Properties” (PLoS ONE, 2013)
Substitutions are numbered along the chain they refer to. Blank lines part the entries; values can stand above or below the compound they belong to.

Assays:
Assay in all cases: ethidium dye uptake in transfected N2a cells
Format in all cases: cell-based
[1] = biological target: T1, drPanx1b (Danio rerio, UniProt F1QSR7, R75A/H238Y); conditions: 500 uM ATP, 20 uM EtBr, 5 min, pH 7.4; endogenous Panx1 and P2X7-R in N2a host
T1 construct: gene panx1b; full length aa 1-422, C-terminal EYFP fusion (pEYFP-N1), transient in mouse N2a cells
T1 sequence (F1QSR7 1-422 R75A/H238Y): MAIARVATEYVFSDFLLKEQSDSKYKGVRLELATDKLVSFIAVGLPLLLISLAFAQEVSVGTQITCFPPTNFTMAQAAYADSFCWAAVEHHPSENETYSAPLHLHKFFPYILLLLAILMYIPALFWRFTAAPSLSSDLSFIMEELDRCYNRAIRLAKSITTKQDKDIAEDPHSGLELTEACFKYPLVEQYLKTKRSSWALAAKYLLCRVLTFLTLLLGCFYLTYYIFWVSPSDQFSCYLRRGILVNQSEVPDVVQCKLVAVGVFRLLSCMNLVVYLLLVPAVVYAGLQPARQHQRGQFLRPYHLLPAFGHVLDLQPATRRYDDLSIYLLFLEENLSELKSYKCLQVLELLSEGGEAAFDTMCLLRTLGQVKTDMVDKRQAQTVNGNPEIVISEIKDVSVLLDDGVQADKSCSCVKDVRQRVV

[2] = biological target: T2, drPanx1a (Danio rerio, UniProt A0A8M1PG01, C76E); conditions: 3 mM ATP, 20 uM EtBr, 5 min, pH 7.4; endogenous Panx1 and P2X7-R in N2a host
T2 construct: gene panx1a; full length aa 1-417 (natural Cys at position 76), C-terminal EYFP fusion (pEYFP-N1), transient in mouse N2a cells
T2 sequence (A0A8M1PG01 1-417 C76E): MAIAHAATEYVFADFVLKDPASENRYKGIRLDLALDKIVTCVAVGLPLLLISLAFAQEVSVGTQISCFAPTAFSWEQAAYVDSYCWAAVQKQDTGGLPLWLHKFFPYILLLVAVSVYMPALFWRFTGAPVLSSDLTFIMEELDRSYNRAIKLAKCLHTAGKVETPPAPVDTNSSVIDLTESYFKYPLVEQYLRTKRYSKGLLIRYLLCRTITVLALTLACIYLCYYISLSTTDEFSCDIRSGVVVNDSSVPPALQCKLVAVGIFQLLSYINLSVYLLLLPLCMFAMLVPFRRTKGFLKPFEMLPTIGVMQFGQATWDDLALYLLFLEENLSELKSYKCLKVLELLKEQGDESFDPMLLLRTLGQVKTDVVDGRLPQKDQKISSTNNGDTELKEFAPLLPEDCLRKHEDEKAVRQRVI

[3] = biological target: T3, drPanx1a (Danio rerio, UniProt A0A8M1PG01)
T3 construct: gene panx1a; full length aa 1-417 (natural Cys at position 76), C-terminal EYFP fusion (pEYFP-N1), transient in mouse N2a cells
T3 sequence (A0A8M1PG01 1-417): T2 sequence (A0A8M1PG01 1-417 C76E) with E76C

[4] = biological target: T4, drPanx1b (Danio rerio, UniProt F1QSR7, H238Y)
T4 construct: gene panx1b; full length aa 1-422, C-terminal EYFP fusion (pEYFP-N1), transient in mouse N2a cells
T4 sequence (F1QSR7 1-422 H238Y): T1 sequence (F1QSR7 1-422 R75A/H238Y) with A75R

[5] = biological target: T5, drPanx1a (Danio rerio, UniProt A0A8M1PG01, C76A); conditions: 100 uM BBG, 20 uM EtBr, 5 min, pH 7.4; endogenous Panx1 and P2X7-R in N2a host
T5 construct: gene panx1a; full length aa 1-417 (natural Cys at position 76), C-terminal EYFP fusion (pEYFP-N1), transient in mouse N2a cells
T5 sequence (A0A8M1PG01 1-417 C76A): T2 sequence (A0A8M1PG01 1-417 C76E) with E76A

[6] = biological target: T6, drPanx1b (Danio rerio, UniProt F1QSR7, R75C/H238Y); conditions: 100 uM BBG, 20 uM EtBr, 5 min, pH 7.4; endogenous Panx1 and P2X7-R in N2a host
T6 construct: gene panx1b; full length aa 1-422, C-terminal EYFP fusion (pEYFP-N1), transient in mouse N2a cells
T6 sequence (F1QSR7 1-422 R75C/H238Y): T1 sequence (F1QSR7 1-422 R75A/H238Y) with A75C

[7] = biological target: T7, drPanx1b (Danio rerio, UniProt F1QSR7, R75K/H238Y); conditions: 100 uM BBG, 20 uM EtBr, 5 min, pH 7.4; endogenous Panx1 and P2X7-R in N2a host
T7 construct: gene panx1b; full length aa 1-422, C-terminal EYFP fusion (pEYFP-N1), transient in mouse N2a cells
T7 sequence (F1QSR7 1-422 R75K/H238Y): T1 sequence (F1QSR7 1-422 R75A/H238Y) with A75K

[8] = biological target: T8, drPanx1a (Danio rerio, UniProt A0A8M1PG01, C76R); conditions: 100 uM BBG, 20 uM EtBr, 5 min, pH 7.4; endogenous Panx1 and P2X7-R in N2a host
T8 construct: gene panx1a; full length aa 1-417 (natural Cys at position 76), C-terminal EYFP fusion (pEYFP-N1), transient in mouse N2a cells
T8 sequence (A0A8M1PG01 1-417 C76R): T2 sequence (A0A8M1PG01 1-417 C76E) with E76R

[9] = biological target: T9, drPanx1a (Danio rerio, UniProt A0A8M1PG01, C76K); conditions: 100 uM BBG, 20 uM EtBr, 5 min, pH 7.4; endogenous Panx1 and P2X7-R in N2a host
T9 construct: gene panx1a; full length aa 1-417 (natural Cys at position 76), C-terminal EYFP fusion (pEYFP-N1), transient in mouse N2a cells
T9 sequence (A0A8M1PG01 1-417 C76K): T2 sequence (A0A8M1PG01 1-417 C76E) with E76K

[10] = biological target: T10, drPanx1b (Danio rerio, UniProt F1QSR7, R75E/H238Y); conditions: 100 uM BBG, 20 uM EtBr, 5 min, pH 7.4; endogenous Panx1 and P2X7-R in N2a host
T10 construct: gene panx1b; full length aa 1-422, C-terminal EYFP fusion (pEYFP-N1), transient in mouse N2a cells
T10 sequence (F1QSR7 1-422 R75E/H238Y): T1 sequence (F1QSR7 1-422 R75A/H238Y) with A75E

[11] = biological target: T11, mPanx1 (Mus musculus, UniProt Q9JIP4); conditions: read-out: % inhibition at 100 uM
T11 construct: gene Panx1; full length aa 1-426, C-terminal EYFP fusion (pEYFP-N1), transient in mouse N2a cells
T11 sequence (Q9JIP4 whole entry, the tested form may be a part): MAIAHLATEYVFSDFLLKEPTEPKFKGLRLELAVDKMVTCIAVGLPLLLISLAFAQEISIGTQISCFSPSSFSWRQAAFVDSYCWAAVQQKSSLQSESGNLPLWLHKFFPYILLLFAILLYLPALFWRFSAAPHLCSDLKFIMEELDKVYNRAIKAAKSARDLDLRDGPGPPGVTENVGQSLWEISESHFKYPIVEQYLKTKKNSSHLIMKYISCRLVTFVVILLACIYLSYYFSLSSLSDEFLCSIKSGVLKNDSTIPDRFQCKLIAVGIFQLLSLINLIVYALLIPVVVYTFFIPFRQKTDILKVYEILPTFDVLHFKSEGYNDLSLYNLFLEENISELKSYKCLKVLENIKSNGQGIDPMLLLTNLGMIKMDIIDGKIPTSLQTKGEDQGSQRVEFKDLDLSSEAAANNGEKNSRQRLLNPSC

[12] = biological target: T2, drPanx1a; conditions: 100 uM BBG, 20 uM EtBr, 5 min, pH 7.4; endogenous Panx1 and P2X7-R in N2a host
[13] = biological target: T1, drPanx1b; conditions: 100 uM BBG, 20 uM EtBr, 5 min, pH 7.4; endogenous Panx1 and P2X7-R in N2a host
[14] = biological target: T11, mPanx1; conditions: 20 uM EtBr, 5 min, pH 7.4; channel permeant dye

- % inhibition at 500 uM [1]: drPanx1b WT ≥ R75K ≥ R75C > R75E ≥ R75A
- % inhibition at 3 mM [2]: ATP: drPanx1a-C76E > C76A ≥ WT
- inhibition at 3000 µM ([3]; read-out: % inhibition at 3 mM): 20.2 ± 2.2%
- inhibition at 500 µM [4]: 27.3 ± 1.9%
Compound: Nc1ncnc2c1ncn2[C@@H]1O[C@H](COP(=O)(O)OP(=O)(O)OP(=O)(O)O)[C@@H](O)[C@H]1O [ATP]

- % inhibition at 100 uM [6]: drPanx1b WT > R75C > R75K ≥ R75A ≥ R75E
- % inhibition at 100 uM [7]: drPanx1b WT > R75C > R75K ≥ R75A ≥ R75E
- % inhibition at 100 uM [8]: BBG: drPanx1a-C76R > C76K > WT
- % inhibition at 100 uM [9]: BBG: drPanx1a-C76R > C76K > WT
- % inhibition at 100 uM [10]: drPanx1b WT > R75C > R75K ≥ R75A ≥ R75E
- inhibition at 100 µM [3]: 33.4 ± 1.7%
- inhibition at 100 µM [11]: 40.6 ± 1.4%
- inhibition at 100 µM [4]: 64.1 ± 1%
- % inhibition at 100 uM [13]: drPanx1b WT > R75C > R75K ≥ R75A ≥ R75E
Compound: CCOc1ccc(Nc2ccc(C(=C3C=CC(=[N+](CC)Cc4cccc(S(=O)(=O)[O-])c4)C=C3C)c3ccc(N(CC)Cc4cccc(S(=O)(=O)O)c4)cc3C)cc2)cc1 [brilliant blue G]
- % inhibition at 100 uM [5]: BBG: drPanx1a-C76R > C76K > WT ≥ C76A > C76E
- % inhibition at 100 uM [12]: BBG: drPanx1a-C76R > C76K > WT ≥ C76A > C76E

Compound: CC[n+]1c(-c2ccccc2)c2cc(N)ccc2c2ccc(N)cc21 [Ethidium bromide]
- ethidium dye uptake in transfected N2a cells [14]: EtBr uptake was significantly increased in mPanx1
